Data taken from ChEMBL document CHEMBL1140202, “A novel cell-penetrating peptide sequence derived by structural minimization of a snake toxin exhibits preferential nucleolar localization” (J Med Chem, 2008).
Where a SMILES comes first, the peptide text is derived from it. [ ]: non-standard residue; d: D form. Ahx = NCCCCCC(=O)O

Key:
[1] = tested on: HeLa; assay: Toxicity against human HeLa cells upto 100 uM after 24 hrs by MTT assay; format: cell-based
[2] = tested on: HeLa; assay: Cellular uptake in human HeLa cells assessed as drug translocation through nucleolar membrane by time-lapsed confocal microscopy; format: ADME, cell-based
[3] = tested on: HeLa; assay: Drug penetration in human HeLa cells at 15 to 50 uM by time-lapsed confocal microscopy relative to control; format: ADME, cell-based

Molecule: H-GSGKKGGKKHCQKY-OH
- Activity [1]: Non-toxic

Molecule: NCCCC[C@H](NC(=O)CCCCCNC(=O)CNC(=O)CNC(=O)[C@H](CCCCN)NC(=O)[C@H](CCCCN)NC(=O)[C@H](Cc1cnc[nH]1)NC(=O)[C@H](CS)NC(=O)[C@H](CCC(N)=O)NC(=O)[C@H](CCCCN)NC(=O)[C@@H](N)Cc1ccc(O)cc1)C(=O)N[C@@H](CCCCN)C(=O)NCC(=O)N[C@@H](CO)C(=O)NCC(=O)O (H-YKQCHKKGG[Ahx]KKGSG-OH)
- Activity [2]: Dose-dependent effect and tde
- Activity [1]: Non-toxic
- Drug uptake [3]: 50%

Molecule: H-YKQCHKKGGKKGSG-OH
- Activity [1]: Non-toxic
- Drug uptake [3]: 50%

Molecule: H-GSGKKGGKKICQKY-OH
- Activity [1]: Non-toxic
